Laboratory results reported in article PMC11413854, “Reversible Control of Native GluN2B-Containing NMDA Receptors with Visible Light” (ACS Chemical Neuroscience, 2024).
“Also recorded” adds a separate entry of the source. Read-outs that look alike come from different tables or passages of the source. One block for each compound: values may come before it.

Target: T1, GluN1/GluN2B NMDA receptors (UniProt P35439+Q01097)
T1 construct: expressed in transfected cells; host or cells: Xenopus laevis oocytes (nuclear cDNA injection)
Experiment: TEVC electrophysiology on Xenopus oocytes expressing wt GluN1/GluN2B NMDARs
Assay type: cell-based, rat GluN1, mouse GluN2B
Details: for remaining activity at 1 µM / remaining activity at 5 µM / remaining activity at 10 µM / remaining activity at 25 µM / remaining activity at 50 µM / remaining activity at 90 µM / remaining activity at 100 µM / remaining activity at 0.01 µM / remaining activity at 0.025 µM / remaining activity at 0.05 µM / remaining activity at 0.1 µM / remaining activity at 0.15 µM: GluN1/GluN2B wt, read-out: Relative current (IOpto/I0); for UV/dark IC50 ratio (365 nm PSS vs dark): preilluminated in solution; for remaining activity at 0.01 µM: 0.010 µM; for remaining activity at 0.05 µM: 0.050 µM; for remaining activity at 0.1 µM: 0.100 µM; for remaining activity at 0.15 µM: 0.150 µM

T1 sequence (Q01097 27-1482, other chains not shown): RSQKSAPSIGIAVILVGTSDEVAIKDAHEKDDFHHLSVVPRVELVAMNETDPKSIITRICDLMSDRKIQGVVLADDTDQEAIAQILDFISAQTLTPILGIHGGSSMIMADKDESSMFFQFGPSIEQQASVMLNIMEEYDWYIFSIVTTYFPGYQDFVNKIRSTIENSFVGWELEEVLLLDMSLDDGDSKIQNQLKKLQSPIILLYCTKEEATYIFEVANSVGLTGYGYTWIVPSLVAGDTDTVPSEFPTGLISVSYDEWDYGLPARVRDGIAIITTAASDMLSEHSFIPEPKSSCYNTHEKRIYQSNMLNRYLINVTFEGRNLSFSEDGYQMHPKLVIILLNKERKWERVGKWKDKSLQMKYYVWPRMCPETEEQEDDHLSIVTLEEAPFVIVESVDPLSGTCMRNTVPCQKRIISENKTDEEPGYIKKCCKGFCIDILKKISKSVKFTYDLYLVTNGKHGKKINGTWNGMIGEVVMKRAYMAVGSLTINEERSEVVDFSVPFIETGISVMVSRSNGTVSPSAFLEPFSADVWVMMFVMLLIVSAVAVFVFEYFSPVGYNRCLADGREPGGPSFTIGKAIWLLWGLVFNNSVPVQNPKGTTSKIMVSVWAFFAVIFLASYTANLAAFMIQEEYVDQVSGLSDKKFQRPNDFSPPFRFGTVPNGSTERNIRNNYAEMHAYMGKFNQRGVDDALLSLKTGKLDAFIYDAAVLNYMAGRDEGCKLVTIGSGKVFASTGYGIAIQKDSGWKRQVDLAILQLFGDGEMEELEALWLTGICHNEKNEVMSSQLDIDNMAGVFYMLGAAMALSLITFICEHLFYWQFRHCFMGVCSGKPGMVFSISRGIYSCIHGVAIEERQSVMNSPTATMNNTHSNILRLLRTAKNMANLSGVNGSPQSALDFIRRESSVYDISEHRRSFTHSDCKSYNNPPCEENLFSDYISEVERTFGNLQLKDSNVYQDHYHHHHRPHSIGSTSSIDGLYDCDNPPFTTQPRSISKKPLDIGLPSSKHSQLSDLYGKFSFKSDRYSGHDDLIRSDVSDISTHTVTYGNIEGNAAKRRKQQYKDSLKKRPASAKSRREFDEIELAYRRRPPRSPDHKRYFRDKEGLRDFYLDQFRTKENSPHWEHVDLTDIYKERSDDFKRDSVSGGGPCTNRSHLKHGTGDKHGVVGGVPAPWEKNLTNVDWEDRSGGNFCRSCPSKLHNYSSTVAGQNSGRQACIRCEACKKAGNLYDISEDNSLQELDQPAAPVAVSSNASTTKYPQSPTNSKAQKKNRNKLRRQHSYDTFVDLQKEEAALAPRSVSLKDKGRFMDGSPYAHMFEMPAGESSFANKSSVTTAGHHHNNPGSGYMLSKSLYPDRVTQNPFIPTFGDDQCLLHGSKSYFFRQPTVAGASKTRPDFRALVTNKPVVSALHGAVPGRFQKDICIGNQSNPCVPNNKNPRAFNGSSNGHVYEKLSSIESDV

IC50 (365 nm PSS, 100 µM glutamate + glycine, Xenopus oocytes, read-out: IC50 on GluN1/GluN2B receptors, preilluminated with 365 nm): 117 ± 10 µM
remaining activity at 1 µM (365 nm PSS): 94.5%
remaining activity at 5 µM (365 nm PSS): 92.7%
remaining activity at 10 µM (365 nm PSS): 90%
remaining activity at 25 µM (365 nm PSS): 84.2%
remaining activity at 50 µM (365 nm PSS): 63.5%
remaining activity at 90 µM (365 nm PSS): 50%
remaining activity at 100 µM (365 nm PSS): 49.3%
remaining activity at 1 µM (dark PSS (trans)): 92.5%
remaining activity at 5 µM (dark PSS (trans)): 84.8%
remaining activity at 10 µM (dark PSS (trans)): 75.5%
remaining activity at 25 µM (dark PSS (trans)): 47.3%
remaining activity at 50 µM (dark PSS (trans)): 31.1%
remaining activity at 90 µM (dark PSS (trans)): 22.1%
remaining activity at 100 µM (dark PSS (trans)): 14.4%
IC50 (Sup. Fig. 2G, trans isomer, source: this paper, read-out: activity (Ki or IC50)): 24 µM
UV/dark IC50 ratio (365 nm PSS vs dark) (Xenopus oocytes): 4.9 fold
shift in IC50 compared to parent compound (trans configuration (dark)): > 1000 fold
Compound: Cc1cc(N)nc(/N=N/c2ccccc2)c1 [OptoNAM-2, (E)-4-methyl-6-(phenyldiazenyl)pyridin-2-amine]

IC50 (365 nm PSS, Xenopus oocytes, read-out: IC50 on GluN1/GluN2B receptors, pre-illuminated with 365 nm): 0.031 ± 0.029 µM
remaining activity at 0.01 µM (365 nm PSS): 69.6%
remaining activity at 0.025 µM (365 nm PSS): 50.1%
remaining activity at 0.05 µM (365 nm PSS): 44.8%
remaining activity at 0.1 µM (365 nm PSS): 34%
remaining activity at 0.15 µM (365 nm PSS): 21%
remaining activity at 0.01 µM (dark PSS (trans)): 68.3%
remaining activity at 0.025 µM (dark PSS (trans)): 45.6%
remaining activity at 0.05 µM (dark PSS (trans)): 39%
remaining activity at 0.1 µM (dark PSS (trans)): 29.7%
remaining activity at 0.15 µM (dark PSS (trans)): 15%
IC50 (dark PSS (trans), Xenopus oocytes, read-out: IC50 on GluN1/GluN2B receptors in the dark): 0.024 ± 0.026 µM
UV/dark IC50 ratio (365 nm PSS vs dark) (Xenopus oocytes): 1.3 fold
Compound: CS(=O)(=O)Nc1ccc2nc(Cc3ccc(/N=N/c4ccccc4)cc3)[nH]c2c1 [OptoNAM-4, (E)-N-(2-(4-(phenyldiazenyl)benzyl)-1H-benzo[d]imidazol-6-yl)methanesulfonamide]
photodependence of activity on GluN1/GluN2B NMDARs (dark vs 365 nm PSS): not photodependent; also recorded: did not display any photodependence of activity
